# From patent US20120058956A1, “PEPTIDES DERIVED FROM FICOLIN AS SURFACTANTS” (METAMOREFIX LTD., priority 2009, published 2012)
# Experiment: transport of hyaluronic acid through pig skin (Franz cell)
# Experimental: Skin samples (stored at −80° C.) were thawed at 4° C. for approximately 15 hr followed by 1 hr at room temperature prior to use. A thawed pig dermatomed skin sample was mounted horizontally on a Franz cell, dermis side down. […] The receptor phase consisted of PBS pH 7.4 with continuous stirring.
# A test formulation, formulated as a suspension was applied to the skin and uniformly dispersed over the skin surface at a surface density of at least 1.0 g/cm^2 to insure pseudo-infinite dose conditions. The formulations consisted of a peptide surfactant of the invention together with hyaluronic acid. The formulations used were as described in the following table: […]
# The dose chamber was sealed with an occlusive film to prevent loss of any volatile component of the test formulation. […] Each aliquot was replaced with an equal volume of PBS.
# The samples were analyzed for the presence of hyaluronic acid by the Carbazole method as is known in the art.
Compound,"HA traversed the skin (control, surfactant omitted, 5 mg/ml HA, period of 6 hours, Franz cell, receptor PBS pH 7.4, curve 1 in FIG. 1)",HA traversed the skin (pH 7.4)
hyaluronic acid [HA],about 40 ?g/cm^2,
"CCCCCCCCCCCC(=O)N(C)CC(=O)[O-].[Na+] [NLS, N Lauroyl Sarcosine Sodium salt]",,about 65 ?g/cm^2
